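GI50: concentration for 50% inhibition of growth. TGI denotes the concentration required for complete inhibition of growth.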
How the values were obtained:
Experiment in all cases: NCI tumour cell line growth inhibition, 384-well format
[1] = system: 786-0 renal
[2] = system: A498 renal
[3] = system: A549 NSCLC
[4] = system: ACHN renal
[5] = system: BT-549 breast
[6] = system: CAKI-1 renal
[7] = system: CCRF-CEM leukemia
[8] = system: COLO 205 colon
[9] = system: DU-145 prostate
[10] = system: EKVX NSCLC
[11] = system: HCC-2998 colon
[12] = system: HCT-116 colon
[13] = system: HCT-15 colon
[14] = system: HL-60(TB) leukemia
[15] = system: HOP-62 NSCLC
[16] = system: HOP-92 NSCLC
[17] = system: HS 578T breast
[18] = system: HT29 colon
[19] = system: IGROV1 ovarian
[20] = system: K-562 leukemia
[21] = system: KM12 colon
[22] = system: LOX IMVI melanoma
[23] = system: M14 melanoma
[24] = system: MALME-3M melanoma
[25] = system: MCF7 breast
[26] = system: MDA-MB-231 breast
[27] = system: MDA-MB-435 melanoma
[28] = system: MDA-MB-468 breast
[29] = system: NCI-H226 lung
[30] = system: NCI-H23 lung
[31] = system: NCI-H322M lung
[32] = system: NCI-H460 NSCLC
[33] = system: NCI-H522 lung
[34] = system: NCI/ADR-RES ovarian
[35] = system: OVCAR-3 ovarian
[36] = system: OVCAR-4 ovarian
[37] = system: OVCAR-8 ovarian
[38] = system: PC-3 prostate
[39] = system: RPMI-8226 leukemia
[40] = system: RXF 393 renal
[41] = system: SF-268 CNS
[42] = system: SF-295 CNS
[43] = system: SF-539 CNS
[44] = system: SK-MEL-28 melanoma
[45] = system: SK-MEL-5 melanoma
[46] = system: SK-OV-3 ovarian
[47] = system: SN12C renal
[48] = system: SNB-19 CNS
[49] = system: SNB-75 CNS
[50] = system: SR leukemia
[51] = system: SW-620 colon
[52] = system: T-47D breast
[53] = system: TK-10 renal
[54] = system: U251 glioblastoma
[55] = system: UACC-257 melanoma
[56] = system: UACC-62 melanoma
[57] = system: UO-31 renal

CC(C)S(=O)(=O)c1ccccc1Nc1nc(Nc2cccc(NC(=O)CN)c2)ncc1Cl
GI50 [1]: 0.182 µM
TGI [1]: 2.08 µM
GI50 [2]: 0.186 µM
TGI [2]: 11.4 µM
GI50 [3]: 0.106 µM
TGI [3]: 7.36 µM
GI50 [4]: 0.2 µM
TGI [4]: 14.7 µM
GI50 [5]: 0.0495 µM
TGI [5]: 0.193 µM
GI50 [6]: 0.124 µM
TGI [6]: 0.866 µM
GI50 [7]: < 0.01 µM
TGI [7]: < 0.01 µM
GI50 [8]: 0.0194 µM
TGI [8]: 0.128 µM
GI50 [9]: 0.0791 µM
TGI [9]: 1.71 µM
GI50 [10]: 0.15 µM
TGI [10]: 1.71 µM
GI50 [11]: 0.187 µM
TGI [11]: 0.659 µM
GI50 [12]: < 0.01 µM
TGI [12]: 0.164 µM
GI50 [13]: 0.152 µM
TGI [13]: 1.25 µM
GI50 [14]: < 0.01 µM
TGI [14]: < 0.01 µM
GI50 [15]: 0.0391 µM
TGI [15]: 0.68 µM
GI50 [16]: 0.135 µM
TGI [16]: 0.463 µM
GI50 [17]: 0.0455 µM
TGI [17]: 0.205 µM
GI50 [18]: 0.184 µM
TGI [18]: 1.16 µM
GI50 [19]: 0.141 µM
TGI [19]: 0.383 µM
GI50 [20]: 0.025 µM
TGI [20]: 0.242 µM
GI50 [21]: 0.0191 µM
TGI [21]: 0.474 µM
GI50 [22]: 0.0258 µM
TGI [22]: 0.18 µM
GI50 [23]: 0.0177 µM
TGI [23]: 0.493 µM
GI50 [24]: 0.399 µM
TGI [24]: 1.56 µM
GI50 [25]: 0.0301 µM
TGI [25]: 0.685 µM
GI50 [26]: 0.0932 µM
TGI [26]: 0.445 µM
GI50 [27]: 0.168 µM
TGI [27]: 1.3 µM
GI50 [28]: 0.0174 µM
TGI [28]: 0.042 µM
GI50 [29]: 0.0495 µM
TGI [29]: 0.354 µM
GI50 [30]: 0.107 µM
TGI [30]: 0.247 µM
GI50 [31]: 0.389 µM
TGI [31]: 1.73 µM
GI50 [32]: < 0.01 µM
TGI [32]: 0.335 µM
GI50 [33]: 0.0771 µM
TGI [33]: 0.622 µM
GI50 [34]: 0.0727 µM
TGI [34]: 1.14 µM
GI50 [35]: 0.0571 µM
TGI [35]: 0.29 µM
GI50 [36]: 0.377 µM
TGI [36]: 2.07 µM
GI50 [37]: 0.0875 µM
TGI [37]: 0.308 µM
GI50 [38]: 0.237 µM
TGI [38]: 1.49 µM
GI50 [39]: 0.0203 µM
TGI [39]: 0.0607 µM
GI50 [40]: 0.0214 µM
TGI [40]: 0.167 µM
GI50 [41]: 0.0307 µM
TGI [41]: 0.223 µM
GI50 [42]: 0.0891 µM
TGI [42]: 11.4 µM
GI50 [43]: 0.0472 µM
TGI [43]: 0.216 µM
GI50 [44]: 0.217 µM
TGI [44]: 1.29 µM
GI50 [45]: 0.0563 µM
TGI [45]: 0.229 µM
GI50 [46]: 0.29 µM
TGI [46]: 7.9 µM
GI50 [47]: 0.149 µM
TGI [47]: 0.518 µM
GI50 [48]: 0.141 µM
TGI [48]: 6.12 µM
GI50 [49]: 0.0238 µM
TGI [49]: 0.189 µM
GI50 [50]: < 0.01 µM
TGI [50]: < 0.01 µM
GI50 [51]: 0.0292 µM
TGI [51]: 0.436 µM
GI50 [52]: 0.48 µM
TGI [52]: 3.32 µM
GI50 [53]: 0.185 µM
TGI [53]: 2.56 µM
GI50 [54]: 0.193 µM
TGI [54]: 1.6 µM
GI50 [55]: 0.324 µM
TGI [55]: 1.44 µM
GI50 [56]: 0.0348 µM
TGI [56]: 0.213 µM
GI50 [57]: 0.218 µM
TGI [57]: 10.7 µM
